Read-outs that look alike come from different tables or passages of the source.
Assays:
[1] = test system: Balamuthia mandrillaris (CDC:V039; ATCC 50209) trophozoites; assay: CellTiter-Glo 2.0 trophocidal assay, B. mandrillaris; assay type: cell-based; settings: Balamuthia mandrillaris, ATCC50209, 72 h
Description: For sub-culturing, 0.25% Trypsin–EDTA (Gibco) cell detachment reagent was used to detach the cells from the culture flasks.

[2] = test system: Naegleria fowleri (ATCC 30215) trophozoites; assay: microbe, parasite or virus in culture
Protocol: Trophozoites were routinely grown axenically at 34°C, 5% CO2, in Nelson’s complete medium (NCM) in non-vented 75 cm^2 tissue culture flasks (Olympus), until the cells were 80–90% confluent. For sub-culturing, cells were placed on ice to detach the cells from the culture flasks. […] Complete NCM media is prepared by the addition of 10% fetal bovine serum (FBS) and 100 U/mL penicillin, and 100 μg/mL streptomycin antibiotics.
Trophozoites were routinely cultured as described above and only logarithmic trophozoites were used.
All assays were incubated at each of the parasites’ representative growth temperatures, described above, for 72 h. At the 72-h time point, 25 μL of CellTiter-Glo 2.0 reagent was added to all wells of the 96-well plates by hand. The plates were protected from light and contents were mixed using an orbital shaker at 300 rpm at room temperature for 2 min to induce cell lysis. After shaking, the plates were equilibrated at room temperature for 10 min to stabilize the luminescent signal. The ATP luminescent signal (relative light units; RLUs) were measured […] with a SpectraMax I3X plate reader (Molecular Devices, Sunnyvale, CA, United States). […] Values reported are from a minimum of three biological replicates with standard deviation.

[3] = test system: Acanthamoeba castellanii T4 isolate (ATCC 50370) trophozoites; assay: CellTiter-Glo 2.0 trophocidal assay, A. castellanii; assay type: cell-based; settings: Acanthamoeba castellanii, ATCC50370, 72 h, logarithmic trophozoites, 72 h, n = 3; read-out: Acanthamoeba castellanii EC50 ± SD
Description: This isolate was purchased from American Type Culture Collection (ATCC). […] For sub-culturing, cells were mechanically harvested to detach the cells from the culture flasks.

[4] = test system: MRC5 cells; assay: Human fetal lung fibroblast (MRC5) cell cytotoxicity assay (resazurin); settings: Table S2
Protocol: Intermediate plates were made as described, adding 95 μL of DMEM complete media to 5 μL of compound per well setting a 5% DMSO amount. Log-phase MRC5 cells were removed from a T-75 TC flask using TrypLE® Express (Thermo®) and dispersed by gentle pipetting. Cell density was adjusted to working concentration in prewarmed DMEM medium: 25,000 cells in 90 μL of culture were plated in 96-well transparent Nunclon plates and allowed to settle for 24 h at 37°C and 5% CO2. […] Plates were incubated for 48 h at 37°C and 5% CO2. At 4 h prior to fluorescence measurement, 20 μL of 500 μM resazurin solution was added.
A four-parameter equation was used to fit the dose–response curves and determination of EC50 by SigmaPlot ® 13.0 software. Assays were performed in duplicate at least twice for positive compounds, to achieve a minimal […] per dose response.

[5] = logarithmic trophozoites, 72 h, n = 3, read-out: Balamuthia mandrillaris EC50 ± SD
[6] = Naegleria fowleri, ATCC30215, 72 h, read-out: Naegleria fowleri EC50 ± SD, logarithmic trophozoites, 72 h, n = 3 (converted)
[7] = read-out: Balamuthia mandrillaris EC50 ± SD, logarithmic trophozoites, 72 h, n = 3 (converted)
[8] = Naegleria fowleri, 72 h, read-out: Naegleria fowleri EC50 ± SD, logarithmic trophozoites, 72 h, n = 3 (converted)

With `CC[C@H]1OC(=O)[C@H](C)[C@@H](O[C@H]2C[C@@](C)(OC)[C@@H](O)[C@H](C)O2)[C@H](C)[C@@H](O[C@@H]2O[C@H](C)C[C@H](N(C)C)[C@H]2O)[C@](C)(O)C[C@@H](C)CN(C)[C@H](C)[C@@H](O)[C@]1(C)O` [Azithromycin, reference compound] the EC50 [1, 5] was greater than 20 µM, the EC50 [2, 6] was 0.02 ± 0.01 µM and the EC50 [3] was 0.26 ± 0.14 µM.
Molecule `[H]/N=C(\N/C(=N/[H])NCCCCCCNC(=N)NC(=N)Nc1ccc(Cl)cc1)Nc1ccc(Cl)cc1` [Chlorhexidine, reference compound] has an EC50 [1, 5] of 1.6 ± 0.17 µM, an EC50 [2, 6] of 5.8 ± 0.22 µM and an EC50 [3] of 11 ± 3.5 µM.
In the case of `Nc1cc(-c2cc3c4c(n[nH]c4c2)Nc2ccccc2O3)ncn1` [Compound 1b], the EC50 [1, 5] is reported as 1.8 ± 0.46 µM and the EC50 [3] is reported as 12 ± 8.2 µM.
In the case of `COc1ccn2c(Nc3ccccc3F)c(-c3cnn(C)c3)nc2c1` [Compound 3b, N-(2-Fluorophenyl)-7-methoxy-2-(1-methyl-1H-pyrazol-4-yl)imidazo[1,2-a]pyridin-3-amine], the EC50 [2, 6] is reported as 13 ± 6.7 µM and the MRC5 TC50 ± Standard Deviation [4] is reported as 64 µM.
`Brc1ccc2nc(-c3ccccn3)c(Nc3ccc4c(c3)OCO4)n2c1` [Compound 3e] was tested, and the EC50 [2, 6] was greater than 20 µM and the EC50 [3] was greater than 20 µM.
Work on `CC(C)Nc1c(-c2ccccn2)nc2cc(C(F)(F)F)ccn12` [Compound 3f, N-(Propan-2-yl)-2-(pyridin-2-yl)-7-(trifluoromethyl)imidazo[1,2-a]pyridin-3-amine] yielded an EC50 [2, 6] greater than 20 µM and an MRC5 TC50 ± Standard Deviation [4] of 53 µM.
Molecule `Cn1cc(-c2cnc3[nH]cc(-c4cccnc4)c3c2)cn1` [Compound 4d] has an EC50 [2, 6] of no more than 14 µM and an EC50 ([2]; read-out: Naegleria fowleri EC50 ± SD, logarithmic trophozoites, 72 h, n = 3) of 8.4 ± 0.71 µM.
`N#Cc1cccc(-c2c[nH]c3ncc(-c4ccncc4)cc23)c1` [Compound 4f] gave an EC50 [2, 6] greater than 20 µM.
Molecule `Cn1cc(-c2ccnc3[nH]c(-c4ccc(C5CCCN5)cc4)cc23)cn1` (stereo not shown) [Compound 5b] has an EC50 [1, 7] of 7.25 ± 0.7 µM.
`Cn1cc(-c2ccnc3[nH]c(-c4ccc(C(N)=O)cc4)cc23)cn1` [Compound 5e] showed an EC50 [1, 7] of 1.8 ± 0.24 µM.
`FC(F)(F)CNc1nc(Nc2ccsc2)nc2[nH]cnc12` [Compound 6a] showed an EC50 [2, 6] of 11 ± 0.6 µM.
`c1nc2c(N3CCC3)nc(Nc3ccsc3)nc2[nH]1` [Compound 6b] showed an EC50 [2, 6] of 14 ± 5.7 µM.
`Cn1cc(Nc2nc(NCC(F)(F)F)c3ncn(C)c3n2)cn1` [Compound 6c] showed an EC50 [2, 6] greater than 20 µM.
`c1nc2c(NCCN3CCCC3)nc(Nc3ccsc3)nc2[nH]1` [Compound 6d] gave an EC50 [2, 6] greater than 20 µM.
For `CN1CCN(c2ncc(-c3ccc4c(Nc5ccc(OCc6cccc(F)c6)c(Cl)c5)ccnc4c3)cn2)CC1` [Compound 7a], the “lipophilic ligand efficiency (LLE)” value ([2]; N. fowleri, LLE calculated as pEC50-LogD7.4) was 1.40 and the EC50 [2, 6] was 16 ± 4.1 µM.
With `CN1CC2(CCN(c3ncc(-c4ccc5c(Nc6cnccn6)ccnc5c4)cn3)C2)C1` [Compound 7b] the EC50 [1, 5] was 1.4 ± 0.17 µM.
`CC(=O)c1ccc2c(c1)c1cc(C(C)=O)ccc1n2CCNC1CCCCC1` [Compound 8a] showed an EC50 [1, 7] of 6.8 ± 0.1 µM.
With `CC(=O)c1cc2c3cc(C(C)=O)c(O)cc3n(CCNC(C)C)c2cc1O` [Compound 8b] the EC50 [1, 5] was 11 ± 0.35 µM and the EC50 [2, 6] was 8.8 ± 0.71 µM.
For `CC(=O)c1ccc2c(c1)c1cc(C(C)=O)ccc1n2CCN1CCCCC1` [Compound 8d], the EC50 [1, 7] was 12 ± 0.26 µM and the EC50 [2, 8] was 4.3 ± 0.22 µM.
For `CC(=O)c1cc2c3cc(C(C)=O)c(O)cc3n(CCCN(C)C)c2cc1O` [Compound 8e], the EC50 [2, 6] was 17 ± 0.65 µM.
`CC(=O)c1ccc2c(c1)c1cc(C(C)=O)ccc1n2CCCN(C)C` [Compound 8f] showed an EC50 [1, 5] of 19 ± 1.1 µM and an EC50 [2, 6] of 17 ± 0.2 µM.
For `CC(=O)c1ccc2c(c1)c1cc(C(C)=O)ccc1n2CCNC1CCCCCC1` [Compound 8h], the EC50 [1, 7] was 7.3 ± 0.38 µM.
`CC(=O)c1ccc2c(c1)c1cc(C(C)=O)ccc1n2CCN1CC(C)C1` [Compound 8i] gave an EC50 [1, 7] of 7.3 ± 0.28 µM and an EC50 [2, 8] of 18 ± 0.45 µM.
